In patent US9908875B2, “Apoptosis signal-regulating kinase inhibitors” (Gilead Sciences, Inc., priority 2013, dated 2018) one finds IC50 data, which are given here for four compounds.

The target in the assay is recombinant human ASK1 kinase (Homo sapiens (Human), UniProt Q99683). The experiment in a line: TR-FRET ASK1 (Apoptosis Signal-Regulating Kinase 1) kinase assay. It is filed as biochemical. The note with it: 4 nM ASK1, 1 μM STK3 peptide substrate, 100 μM ATP, HTRF detection; average of quadruplicate determination; read-out: IC50 (nM), activities of the compounds of Formula (I) to ASK1. The text has this: I. TR-FRET ASK1 (Apoptosis Signal-Regulating Kinase 1) Kinase Assay
Sequence of recombinant human ASK1 kinase (Q99683 whole entry): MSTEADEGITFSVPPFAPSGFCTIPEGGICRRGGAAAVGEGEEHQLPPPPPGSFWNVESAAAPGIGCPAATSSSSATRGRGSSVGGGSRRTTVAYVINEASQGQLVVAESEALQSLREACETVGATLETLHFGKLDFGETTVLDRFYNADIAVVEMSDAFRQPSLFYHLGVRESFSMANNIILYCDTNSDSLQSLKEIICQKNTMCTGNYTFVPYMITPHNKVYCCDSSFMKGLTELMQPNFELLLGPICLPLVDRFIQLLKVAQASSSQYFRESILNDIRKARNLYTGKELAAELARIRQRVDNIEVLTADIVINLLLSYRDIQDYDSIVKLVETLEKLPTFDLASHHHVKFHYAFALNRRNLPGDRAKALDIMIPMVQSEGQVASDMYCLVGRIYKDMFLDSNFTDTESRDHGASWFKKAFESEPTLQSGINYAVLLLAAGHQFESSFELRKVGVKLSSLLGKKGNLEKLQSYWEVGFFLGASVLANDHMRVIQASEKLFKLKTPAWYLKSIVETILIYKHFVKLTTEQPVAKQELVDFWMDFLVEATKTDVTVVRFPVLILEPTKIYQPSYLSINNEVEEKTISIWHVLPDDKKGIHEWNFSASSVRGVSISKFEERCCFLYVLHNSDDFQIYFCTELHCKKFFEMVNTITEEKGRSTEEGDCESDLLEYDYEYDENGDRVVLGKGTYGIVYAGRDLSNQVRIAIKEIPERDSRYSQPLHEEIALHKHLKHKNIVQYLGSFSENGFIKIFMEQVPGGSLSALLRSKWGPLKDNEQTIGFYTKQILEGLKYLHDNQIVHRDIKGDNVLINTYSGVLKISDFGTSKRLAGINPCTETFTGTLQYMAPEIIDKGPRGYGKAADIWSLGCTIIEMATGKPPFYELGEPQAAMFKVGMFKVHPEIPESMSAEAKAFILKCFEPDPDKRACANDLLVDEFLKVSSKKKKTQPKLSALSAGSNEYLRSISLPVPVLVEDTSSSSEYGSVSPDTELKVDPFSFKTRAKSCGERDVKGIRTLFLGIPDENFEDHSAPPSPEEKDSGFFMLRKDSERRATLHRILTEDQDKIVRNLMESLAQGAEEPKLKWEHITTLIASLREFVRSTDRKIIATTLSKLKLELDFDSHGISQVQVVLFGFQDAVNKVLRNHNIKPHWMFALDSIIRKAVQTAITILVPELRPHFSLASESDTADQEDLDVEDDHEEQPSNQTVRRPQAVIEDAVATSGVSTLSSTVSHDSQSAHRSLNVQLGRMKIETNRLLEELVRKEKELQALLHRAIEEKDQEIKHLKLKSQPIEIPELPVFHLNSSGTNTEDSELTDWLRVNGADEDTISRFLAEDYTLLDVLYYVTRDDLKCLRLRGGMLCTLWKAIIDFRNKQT
To evaluate the inhibitory activity of compounds of the invention against ASK1 (Apoptosis Signal-regulating Kinase 1) kinase, its activity was examined using a TR-FRET ASK1 kinase assay which determined the amount of phosphate transferred to a peptide substrate from ATP.
Dephosphorylated recombinant human ASK1 kinase was from Gilead Sciences. Small molecule kinase inhibitor staurosporine (Catalogue #S6942) and dithiothreitol (DTT, catalogue #43815-5G) were obtained from Sigma Chemicals (St. Louis, Mo.). ATP (catalogue #7724) was from Affymetrix (Santa Clara, Calif.) and test compounds were from Gilead Sciences. HTRF KinEASE™-STK S3 kit was obtained from Cisbio (Bedford, Mass.). All other reagents were of the highest grade commercially available.
The assay measures the phosphorylation level of a biotinylated peptide substrate by the ASK1 kinase using HTRF detection. This is a competitive, time-resolved fluorescence resonance energy transfer (TR-FRET) immunoassay, based on HTRF® KinEASE™-STK manual from Cisbio. Test compound, 1 μM STK3 peptide substrate, 4 nM of ASK1 kinase were incubated with 10 mM MOP buffer, pH. 7.0 containing 10 mM Mg-acetate, 0.025% NP-40, 1 mM DTT, 0.05% BSA and 1.5% glycerol for 30 minutes then 100 μM ATP was added to start the kinase reaction and incubated for 3 hr. Peptide antibody labeled with 1× Eu^3+ Cryptate buffer containing 10 mM EDTA and 125 nM Streptavidin XL665 were added to stop the reaction and phosphorylated peptide substrate was detected using Envision 2103 Multilabeled reader from PerkinElmer. The fluorescence was measured at 615 nm (Cryptate) and 665 nm (XL665) and a ratio of 665 nm/615 nm was calculated for each well. The resulting TR-FRET level (a ratio of 665 nm/615 nm) was proportional to the phosphorylation level. Under these assay conditions, the degree of phosphorylation of peptide substrate was linear with time and concentration for the enzyme. The assay system yielded consistent results with regard to Km and specific activities for the enzyme. For inhibition experiments (IC50 values), activities were performed with constant concentrations of ATP, peptide and several fixed concentrations of inhibitors. Staurosporine, the nonselective kinase inhibitor, was used as the positive control. All enzyme activity data are reported as an average of quadruplicate determination.
The IC50 values were calculated following equation: y=Range/{1+(x/IC50)^s}+Background where x and y represent the concentration of inhibitors and enzyme activity, respectively. Enzyme activity is expressed as the amount of Phosphate incorporated into substrate peptide from ATP. Range is the maximum y range (no inhibitor, DMSO control) and s is a slope factor.
On the technique in general: TR-FRET usually uses a lanthanide donor and a delayed reading to cut background.
On to `O=C(Nc1csc(-c2nncn2C2CC2)n1)c1cc(-n2cnc(C3CC3)c2)c(N2CCN3CCCC3C2)cn1` (stereo not shown) [Compound 15, 5-(3,4,6,7,8,8a-hexahydro-1H-pyrrolo[1,2-a]pyrazin-2-yl)-4-(4-cyclopropylimidazol-1-yl)-N-[2-(4-cyclopropyl-1,2,4-triazol-3-yl)-1,3-thiazol-4-yl]pyridine-2-carboxamide], for which the IC50 (commonly the concentration at which inhibition is half-maximal) was determined as 2.7 nM.

On to `C[C@H](n1cnnc1-c1nc(NC(=O)c2cc(-n3cnc(C4CC4)c3)c(N3CC(C)(C#N)C3)cn2)cs1)C(F)(F)F` [Compound 24, (S)-5-(3-cyano-3-methylazetidin-1-yl)-4-(4-cyclopropyl-1H-imidazol-1-yl)-N-(2-(4-(1,1,1-trifluoropropan-2-yl)-4H-1,2,4-triazol-3-yl)thiazol-4-yl)picolinamide], for which the IC50 came to 1.4 nM.

Consider `COC1CCN(c2cnc(C(=O)Nc3csc(-c4nncn4[C@@H](C)C(F)(F)F)n3)cc2-n2cnc(C3CC3)c2)C1` (stereo partly drawn) [Compound 28, 4-(4-cyclopropyl-1H-imidazol-1-yl)-5-(3-methoxypyrrolidin-1-yl)-N-(2-(4-((S)-1,1,1-trifluoropropan-2-yl)-4H-1,2,4-triazol-3-yl)thiazol-4-yl)picolinamide], for which the IC50 turned out to be 1.9 nM.

Turning to `C[C@H](n1cnnc1-c1nc(NC(=O)c2cc(-n3cnc(C4CC4)c3)c(N3CCN(CC(F)(F)F)CC3)cn2)cs1)C(F)(F)F` [Compound 33, (S)-4-(4-cyclopropyl-1H-imidazol-1-yl)-5-(4-(2,2,2-trifluoroethyl)piperazin-1-yl)-N-(2-(4-(1,1,1-trifluoropropan-2-yl)-4H-1,2,4-triazol-3-yl)thiazol-4-yl)picolinamide], the IC50 amounted to 1.2 nM.
